# Legend:
# [1] = segatella copri, 12 h, 2 µM
# Description: The drug is tested on Prevotella copri strain: DSM18205 for biotransformation. The drug concentrations were measured before and after a 12-h incubation by liquid-chromatography-coupled mass spectrometry (LC–MS)
# [2] = The drug is tested on Blautia luti strain: DSM14534 for biotransformation. The drug concentrations were measured before and after a 12-h incubation by liquid-chromatography-coupled mass spectrometry (LC–MS); format: ADME; design: dose 2 uM, timepoint 0 vs 12 hours; conditions: 2 µM
# [3] = The drug is tested on Ruminococcus gnavus strain: ATCC29149 for biotransformation. The drug concentrations were measured before and after a 12-h incubation by liquid-chromatography-coupled mass spectrometry (LC–MS); conditions: mediterraneibacter gnavus, 2 µM
# [4] = The drug is tested on Eubacterium ventriosum strain: ATCC27560 for biotransformation. The drug concentrations were measured before and after a 12-h incubation by liquid-chromatography-coupled mass spectrometry (LC–MS); format: ADME; design: dose 2 uM, timepoint 0 vs 12 hours; conditions: 2 µM
# [5] = bacteroides stercoris, 12 h, 2 µM
# Description: The drug is tested on Bacteroides stercoris strain: ATCC43183 for biotransformation. The drug concentrations were measured before and after a 12-h incubation by liquid-chromatography-coupled mass spectrometry (LC–MS)
# [6] = The drug is tested on Collinsella intestinalis strain: DSM13280 for biotransformation. The drug concentrations were measured before and after a 12-h incubation by liquid-chromatography-coupled mass spectrometry (LC–MS); conditions: 2 µM
# [7] = The drug is tested on Subdoligranulum variabile strain: DSM15176 for biotransformation. The drug concentrations were measured before and after a 12-h incubation by liquid-chromatography-coupled mass spectrometry (LC–MS); conditions: 2 µM
# [8] = limosilactobacillus reuteri cf48-3a, 12 h, 2 µM
# Description: The drug is tested on Lactobacillus reuteri CF48-3A strain: BEI HM-102 for biotransformation. The drug concentrations were measured before and after a 12-h incubation by liquid-chromatography-coupled mass spectrometry (LC–MS)
# [9] = The drug is tested on Dorea formicigenerans strain: ATCC27755 for biotransformation. The drug concentrations were measured before and after a 12-h incubation by liquid-chromatography-coupled mass spectrometry (LC–MS); conditions: 2 µM
# [10] = akkermansia muciniphila, 12 h, 2 µM
# Description: The drug is tested on Akkermansia muciniphila strain: ATCC BAA-835 for biotransformation. The drug concentrations were measured before and after a 12-h incubation by liquid-chromatography-coupled mass spectrometry (LC–MS)
# [11] = The drug is tested on Bacteroides fragilis strain: HMW610 for biotransformation. The drug concentrations were measured before and after a 12-h incubation by liquid-chromatography-coupled mass spectrometry (LC–MS); conditions: 2 µM
# [12] = The drug is tested on Clostridium sporogenes strain: ATCC15579 for biotransformation. The drug concentrations were measured before and after a 12-h incubation by liquid-chromatography-coupled mass spectrometry (LC–MS); conditions: 2 µM
# [13] = roseburia intestinalis, 12 h, 2 µM
# Description: The drug is tested on Roseburia intestinalis strain: L1-82 for biotransformation. The drug concentrations were measured before and after a 12-h incubation by liquid-chromatography-coupled mass spectrometry (LC–MS)
# [14] = The drug is tested on Bacteroides finegoldii strain: DSM17565 for biotransformation. The drug concentrations were measured before and after a 12-h incubation by liquid-chromatography-coupled mass spectrometry (LC–MS); conditions: 2 µM
# [15] = The drug is tested on Bacteroides coprophilus strain: DSM18228 for biotransformation. The drug concentrations were measured before and after a 12-h incubation by liquid-chromatography-coupled mass spectrometry (LC–MS); conditions: 2 µM
# [16] = The drug is tested on Clostridium asparagiforme strain: DSM15981 for biotransformation. The drug concentrations were measured before and after a 12-h incubation by liquid-chromatography-coupled mass spectrometry (LC–MS); format: ADME; design: dose 2 uM, timepoint 0 vs 12 hours; conditions: enterocloster asparagiformis, 2 µM
# [17] = bacteroides thetaiotaomicron, 12 h, 2 µM
# Description: The drug is tested on Bacteroides thetaiotaomicron strain: 7330 for biotransformation. The drug concentrations were measured before and after a 12-h incubation by liquid-chromatography-coupled mass spectrometry (LC–MS)
# [18] = bacteroides intestinalis, 12 h, 2 µM
# Description: The drug is tested on Bacteroides intestinalis strain: DSM17393 for biotransformation. The drug concentrations were measured before and after a 12-h incubation by liquid-chromatography-coupled mass spectrometry (LC–MS)
# [19] = The drug is tested on Coprococcus comes strain: ATCC27758 for biotransformation. The drug concentrations were measured before and after a 12-h incubation by liquid-chromatography-coupled mass spectrometry (LC–MS); format: ADME; design: dose 2 uM, timepoint 0 vs 12 hours; conditions: 2 µM
# [20] = The drug is tested on Anaerococcus hydrogenalis strain: DSM7454 for biotransformation. The drug concentrations were measured before and after a 12-h incubation by liquid-chromatography-coupled mass spectrometry (LC–MS); conditions: 2 µM
Compound,Bacterial Biotransformation [1],Bacterial Biotransformation [2],Bacterial Biotransformation [3],Bacterial Biotransformation [4],Bacterial Biotransformation [5],Bacterial Biotransformation [6],Bacterial Biotransformation [7],Bacterial Biotransformation [8],Bacterial Biotransformation [9],Bacterial Biotransformation [10],Bacterial Biotransformation [11],Bacterial Biotransformation [12],Bacterial Biotransformation [13],Bacterial Biotransformation [14],Bacterial Biotransformation [15],Bacterial Biotransformation [16],Bacterial Biotransformation [17],Bacterial Biotransformation [18],Bacterial Biotransformation [19],Bacterial Biotransformation [20]
CSc1ccc2c(c1)C(N1CCN(C)CC1)Cc1ccccc1S2.O=C(O)/C=C\C(=O)O (configuration not stated),Compound metabolized,Compound NOT metabolized,Compound NOT metabolized,Compound NOT metabolized,Compound NOT metabolized,Compound NOT metabolized,Compound NOT metabolized,Compound NOT metabolized,Compound NOT metabolized,Compound NOT metabolized,Compound NOT metabolized,Compound metabolized,Compound NOT metabolized,Compound NOT metabolized,Compound NOT metabolized,Compound NOT metabolized,Compound NOT metabolized,Compound NOT metabolized,,
CN1CCc2cccc3c2[C@H]1Cc1ccc(O)c(O)c1-3 [APOMORPHINE],Compound NOT metabolized,Compound NOT metabolized,Compound NOT metabolized,Compound NOT metabolized,Compound NOT metabolized,Compound NOT metabolized,Compound NOT metabolized,Compound NOT metabolized,Compound NOT metabolized,Compound NOT metabolized,Compound NOT metabolized,Compound NOT metabolized,Compound NOT metabolized,Compound NOT metabolized,,Compound NOT metabolized,Compound NOT metabolized,Compound NOT metabolized,Compound NOT metabolized,Compound NOT metabolized
CCc1oc2ccccc2c1C(=O)c1cc(Br)c(O)c(Br)c1 [BENZBROMARONE],Compound NOT metabolized,Compound NOT metabolized,Compound NOT metabolized,Compound NOT metabolized,Compound NOT metabolized,,Compound NOT metabolized,,Compound NOT metabolized,Compound NOT metabolized,Compound NOT metabolized,Compound NOT metabolized,Compound NOT metabolized,Compound NOT metabolized,Compound NOT metabolized,Compound NOT metabolized,Compound NOT metabolized,Compound NOT metabolized,Compound NOT metabolized,Compound NOT metabolized
CC(NC(C)(C)C)C(=O)c1cccc(Cl)c1 (configuration not stated) [BUPROPION],Compound NOT metabolized,Compound NOT metabolized,Compound NOT metabolized,,Compound NOT metabolized,Compound NOT metabolized,Compound NOT metabolized,Compound NOT metabolized,Compound NOT metabolized,Compound NOT metabolized,Compound NOT metabolized,Compound NOT metabolized,,Compound NOT metabolized,Compound metabolized,Compound NOT metabolized,Compound NOT metabolized,,Compound NOT metabolized,Compound NOT metabolized
COC(=O)[C@H](c1ccccc1Cl)N1CCc2sccc2C1.O=S(=O)(O)O [CLOPIDOGREL BISULFATE],Compound NOT metabolized,Compound NOT metabolized,Compound NOT metabolized,Compound NOT metabolized,Compound metabolized,Compound NOT metabolized,Compound NOT metabolized,Compound NOT metabolized,Compound NOT metabolized,Compound NOT metabolized,Compound metabolized,Compound metabolized,Compound NOT metabolized,,Compound metabolized,Compound NOT metabolized,Compound metabolized,Compound NOT metabolized,Compound NOT metabolized,Compound NOT metabolized
COc1cc2c(c(OC)c1OC)-c1ccc(OC)c(=O)cc1[C@@H](NC(C)=O)CC2 [COLCHICINE],Compound metabolized,Compound NOT metabolized,,Compound NOT metabolized,Compound metabolized,Compound NOT metabolized,Compound NOT metabolized,Compound NOT metabolized,Compound NOT metabolized,Compound NOT metabolized,Compound metabolized,Compound metabolized,Compound metabolized,,Compound NOT metabolized,Compound NOT metabolized,Compound metabolized,Compound metabolized,Compound NOT metabolized,Compound NOT metabolized
C#C[C@]1(O)CC[C@H]2[C@@H]3CCC4=Cc5oncc5C[C@]4(C)[C@H]3CC[C@@]21C [DANAZOL],Compound metabolized,Compound metabolized,Compound metabolized,Compound metabolized,Compound metabolized,Compound metabolized,Compound metabolized,,Compound metabolized,Compound metabolized,Compound metabolized,Compound metabolized,Compound metabolized,Compound metabolized,Compound NOT metabolized,Compound metabolized,Compound metabolized,Compound metabolized,Compound metabolized,Compound metabolized
CNC(=C[N+](=O)[O-])NCCSCc1ccc(CN(C)C)o1 [RANITIDINE],Compound metabolized,Compound metabolized,Compound metabolized,Compound metabolized,Compound NOT metabolized,Compound metabolized,Compound metabolized,Compound NOT metabolized,Compound metabolized,Compound metabolized,Compound NOT metabolized,Compound NOT metabolized,Compound metabolized,,Compound metabolized,Compound metabolized,Compound NOT metabolized,Compound NOT metabolized,Compound metabolized,Compound metabolized

# Reference: ChEMBL document CHEMBL5303573, “Mapping human microbiome drug metabolism by gut bacteria and their genes” (Nature, 2019)
